Reference: patent US4861778A, “2,3-dihydrophthalazine-1,4-diones” (priority 1986, dated 1989)
Read-outs that look alike come from different tables or passages of the source.

Test system: serum cholesterol and serum triglyceride
Experiment: Hypolipidemic activity of 2,3-dihydrophthalazine-1,4-diones in normal male mice (Example 11, Table II)
Format: in vivo, CF1 male mice
Details: Mus musculus, ip
Protocol: Hypolipidemic Activity of 2,3-Dihydrophthalazine-1,4-Diones in Normal Male Mice
Each of the prepared compounds was administered intraperitoneally, in a dosage of 20 milligrams per kilogram of body weight per day, to a group of six CF1 male mice, each weighing approximately 25 grams, for 16 days. On Days 9 and 16 blood was obtained from each of the tested mice by tail vein bleeding. The blood serum so obtained was separated by centrifugation for three minutes. […] Serum triglyceride levels were obtained on Day 16 by use of the Bio-Dynamics/bm Triglyceride Kit.
In addition to the above-described treated mice, an untreated control group of six mice were similarly tested on Days 9 and 16 to determine their serum cholesterol and serum triglyceride blood levels.

[1] = 216 h, CF1 male mice, 20 mg/kg/day intraperitoneally, Day 9, read-out: Serum Cholesterol Day 9, percent control ± standard deviation
[2] = 384 h, CF1 male mice, 20 mg/kg/day intraperitoneally, Day 16, read-out: Serum Cholesterol Day 16, percent control ± standard deviation
[3] = 384 h, CF1 male mice, 20 mg/kg/day intraperitoneally, Day 16, read-out: Serum Triglyceride Day 16, percent control ± standard deviation

SMILES | response vs control in vivo at 20 mg/kg/day [1] [%] | response vs control in vivo at 20 mg/kg/day [2] [%] | response vs control in vivo at 20 mg/kg/day [3] [%] | response vs control in vivo at 20 mg/kg/day (216 h, read-out: Serum Cholesterol Day 9, percent control ± standard deviation) [%] | response vs control in vivo at 20 mg/kg/day (384 h, read-out: Serum Cholesterol Day 16, percent control ± standard deviation) [%] | response vs control in vivo at 20 mg/kg/day (384 h, read-out: Serum Triglyceride Day 16, percent control ± standard deviation) [%]
Cn1nc(O)c2ccccc2c1=O [Compound 2] | 72 ± 5 | 77 ± 3 | 66 ± 4 | – | – | –
COc1nn(C)c(=O)c2ccccc12 [Compound 3, 2-Methyl-4-Methoxyphthalazine-1(2H)-One] | 84 ± 6 | 81 ± 5 | 64 ± 5 | – | – | –
CCn1[nH]c(=O)c2ccccc2c1=O [Compound 4, 2-Ethyl-2,3-Dihydrophthalazine-1,4-Dione] | 71 ± 7 | 58 ± 5 | 59 ± 4 | – | – | –
CCOc1nn(CC)c(=O)c2ccccc12 [Compound 5] | 77 ± 5 | 76 ± 4 | 57 ± 3 | – | – | –
CCCn1[nH]c(=O)c2ccccc2c1=O [Compound 6, 2-n-propyl-2,3-dihydrophthalazine-1,4-dione] | 77 ± 6 | 68 ± 5 | 62 ± 2 | – | – | –
CCCOc1nn(CCC)c(=O)c2ccccc12 [Compound 7] | 68 ± 3 | 69 ± 5 | 69 ± 2 | – | – | –
CCCCn1[nH]c(=O)c2ccccc2c1=O [Compound 8, 2-n-butyl-2,3-dihydrophthalazine-1,4-dione] | 59 ± 2 | 58 ± 3 | 73 ± 4 | – | – | –
CCCCOc1nn(CCCC)c(=O)c2ccccc12 [Compound 9] | 65 ± 4 | 61 ± 3 | 66 ± 3 | – | – | –
CCCCCn1nc(O)c2ccccc2c1=O [Compound 10] | 74 ± 3 | 71 ± 5 | 55 ± 4 | – | – | –
CCCCCOc1nn(CCCCC)c(=O)c2ccccc12 [Compound 11] | 86 ± 6 | 63 ± 4 | 59 ± 3 | – | – | –
O=c1[nH][nH]c(=O)c2c(Cl)cccc12 [Compound 12, 5-Chloro-2,3-Dihydrophthalazine-1,4-Dione] | 72 ± 5 | 69 ± 4 | 86 ± 5 | – | – | –
O=c1[nH]nc(O)c2cc(Cl)ccc12 [Compound 13] | 72 ± 4 | 64 ± 5 | 65 ± 4 | – | – | –
Cc1cccc2c(=O)[nH]nc(O)c12 [Compound 14] | 80 ± 4 | 75 ± 3 | 73 ± 3 | – | – | –
Cc1ccc2c(=O)[nH][nH]c(=O)c2c1 [Compound 15, 6-methyl-2,3-dihydrophthalazine-1,4-dione] | 66 ± 8 | 55 ± 4 | 54 ± 4 | – | – | –
COc1cccc2c(=O)[nH]nc(O)c12 [Compound 16] | 82 ± 5 | 78 ± 3 | 81 ± 4 | – | – | –
COc1ccc2c(=O)[nH]nc(O)c2c1 [Compound 17] | 77 ± 5 | 76 ± 4 | 69 ± 3 | – | – | –
O=C(O)CCn1[nH]c(=O)c2ccccc2c1=O [Compound 18, 2-(2'-Carboxyethyl)-2,3-Dihydrophthalazine-1,4-Dione] | 54 ± 6 | 34 ± 3 | 60 ± 4 | – | – | –
CCOC(=O)Cn1[nH]c(=O)c2ccccc2c1=O [Compound 19, 2-(1'-Carbethoxymethyl)-2,3-Dihydrophthalazine-1,4-Dione] | 78 ± 6 | 69 ± 5 | 73 ± 4 | – | – | –
CC(=O)CCn1[nH]c(=O)c2ccccc2c1=O [Compound 20, 2-(3'-Oxobutyl)-2,3-Dihydrophthalazine-1,4-Dione] | 72 ± 6 | 59 ± 3 | 70 ± 7 | – | – | –
O=c1[nH]n(-c2ccccc2)c(=O)c2ccccc12 [Compound 21, 2-Phenyl-2,3-Dihydrophthalazine-1,4-Dione] | – | – | – | 59 ± 5 | 58 ± 4 | 65 ± 3
O=c1c2ccccc2c(O)nn1-c1ccccc1Cl [Compound 22] | 72 ± 5 | 67 ± 3 | 68 ± 4 | – | – | –
O=c1c2ccccc2c(O)nn1-c1cccc(Cl)c1 [Compound 23] | 73 ± 4 | 62 ± 3 | 69 ± 5 | – | – | –
O=c1[nH]n(-c2ccc(Cl)cc2)c(=O)c2ccccc12 [Compound 24, 2-(4'-chlorophenyl)-2,3-dihydrophthalazine-1,4-dione] | 60 ± 3 | 54 ± 4 | 59 ± 5 | – | – | –
Cc1ccccc1-n1nc(O)c2ccccc2c1=O [Compound 25] | 82 ± 7 | 66 ± 5 | 76 ± 6 | – | – | –
Cc1cccc(-n2nc(O)c3ccccc3c2=O)c1 [Compound 26] | 87 ± 6 | 74 ± 4 | 65 ± 3 | – | – | –
Cc1ccc(-n2nc(O)c3ccccc3c2=O)cc1 [Compound 27] | 89 ± 5 | 73 ± 6 | 57 ± 2 | – | – | –
